# Measurements reported in US20250270579A1, “PLANTS WITH ALTERED ROOT AND SHOOT ARCHITECTURE AND METHODS FOR OBTAINING AND USING SAME” (IOWA STATE UNIVERSITY RESEARCH FOUNDATION, INC., priority 2024, published 2025).
# Columns and labels:
# [1] = system: ZmPILS6; experiment: Auxin transport assay in yeast expressing ZmPILS6; format: cell-based, Zea mays; settings: yeast expressing ZmPILS6 compared to empty vector control
# Experimental: Auxin transport assays in yeast. Transport assays of radiolabeled indole-3-acetic acid (^3H-IAA) were performed as previously described (Michniewicz, et al., “Transporter of IBA1 Links Auxin and Cytokinin to Influence Root Architecture,” Developmental Cell 50:599-609.e4 (2019), which is hereby incorporated by reference in its entirety). Briefly, pCC13 was transformed into Saccharomyces cerevisiae strain JBY575. Single yeast colonies were grown in liquid-URA selective media overnight at 30° C. Yeast were resuspended in 0.1M MES (pH 4.6) with 2% dextrose to an OD600 of 5. 100 μL of resuspended cells were added to a 1.5 mL Eppendorf tube and added 100 μL of 50 nM 3H-IAA and incubated at RT for 30 minutes. Yeast cells were centrifuged for 15 seconds before removing the supernatant and washing 3 times with MES solution. Cells were resuspended in 100 μL of MES buffer and ^3H-IAA was measured using a scintillation counter. For each plasmid expressing yeast, 12 biological replicates were statistically analyzed using a t test.
# [2] = system: maize primary roots; experiment: In vivo auxin accumulation assay in dissected primary roots; set-up: species or system Zea mays
# Experimental: In vivo auxin transport assays. Auxin accumulation assays were performed as previously described (Strader and Bartel, “The Arabidopsis PLEIOTROPIC DRUG RESISTANCE8/ABCG36 ATP Binding Cassette Transporter Modulates Sensitivity to the Auxin Precursor Indole-3-Butyric Acid,” The Plant Cell 21:1992-2007 (2009), which is hereby incorporated by reference in its entirety). […] Sections were equilibrated in 40 μL of uptake buffer (20 mM MES, 10 mM sucrose, and 0.5 mM CaSO4, pH 5.6) for 30 minutes at room temperature (RT). 40 μL of 50 nM 3H-IAA was added to each sample and incubated at RT for 1 hour. Samples were rinsed 3 times with […] of uptake buffer. 3H-IAA in tissue samples was measured using a scintillation counter as previously described (Strader and Bartel, “The Arabidopsis PLEIOTROPIC DRUG RESISTANCE8/ABCG36 ATP Binding Cassette Transporter Modulates Sensitivity to the Auxin Precursor Indole-3-Butyric Acid,” The Plant Cell 21:1992-2007 (2009), which is hereby incorporated by reference in its entirety). Samples were moved to scintillation vials containing CytoScint (MP Biomedicals) and disintegrations per minute (DPM) were measured using a scintillation counter (Beckman Coulter LS-6500).
# [3] = system: maize primary roots; experiment: Proteomic profiling of maize roots with and without auxin treatment; format: in vivo, Zea mays; settings: 10 μM IAA
# Experimental: For proteomics analysis, W22 and pils6-1 kernels were surface sterilized and planted in rolled towels as described above. Two days after planting, ungerminated kernels were removed from the assay. Five-day-old seedlings were removed from the rolled towels and floated on 0.5×LS media supplemented with 10 μM IAA in 0.5×LS or an equal volume of 95% ethanol in 0.5×LS for 1 hour. For each biological replicate, total root tissue from 5 seedlings was excised using a scalpel and pooled prior to flash freezing in liquid nitrogen. Three biological replicates were generated per genotype and treatment.
# Proteomics. Protein extraction and peptide generation. Protein extraction and peptide digestion was performed as previously described (Song et al., “Heterotrimeric G-Protein-Dependent Proteome and Phosphoproteome in Unstimulated Arabidopsis Roots,” Proteomics 18: e1800323 (2018), which is hereby incorporated by reference in its entirety). Briefly, total protein was extracted from […] of 5-day-old primary root tissue (W22 and pils6-1) using the phenol-FASP method as previously detailed (Song et al., “Assessment and Refinement of Sample Preparation Methods for Deep and Quantitative Plant Proteome Profiling,” Proteomics 18: e1800220 (2018); Song et al., “Quantitative Profiling of Protein Abundance and Phosphorylation State in Plant Tissues Using Tandem Mass Tags” in Plant Proteomics: Methods and Protocols, Methods in Molecular Biology., J. V. Jorrin-Novo, L. Valledor, M. A. Castillejo, M.-D. Rey, Eds., pp. 147-156 (Springer US, 2020), each of which is hereby incorporated by reference in its entirety). […] Peptide amounts were quantified using the Pierce BCA Protein assay kit […]
# [4] = system: maize primary roots; experiment: Auxin response assay (rolled towel), primary root length; format: in vivo, Zea mays; settings: pils6-1 and pils6-3 roots compared to W22 and B73, 10 μM IAA
# Experimental: Auxin response assays were performed using the rolled towel assay as previously described (Draves, “Maize Seedling Growth and Hormone Response Assays Using the Rolled Towel Method,” Current Protocols 2: e562 (2022), which is hereby incorporated by reference in its entirety) using 20-40 biological replicates per genotype and treatment. Maize kernels were surface sterilized with 6% bleach and planted on germination paper and placed vertically in a 2-L beaker with 600 mL of 0.5×Linsmaier and Skoog (LS) media. Seedlings were grown for 3 days after germination (DAG) and then treated with 10 μM indole-3-acetic acid (IAA) or an equal volume 95% ethanol for 7 additional days.
SMILES,3H-IAA accumulation in yeast cells [1],3H-IAA accumulation in the elongation zone ([2]; pils6-1 roots (absence of ZmPILS6) compared to W22),3H-IAA accumulation in the stele ([2]; pils6-1 roots compared to W22),"proteins with altered abundance in response to IAA treatment ([3]; W22 roots, 1 hour)",proteins auxin-induced in W22 that are auxin-repressed in pils6-1 ([3]; W22 vs pils6-1 roots),"auxin-responsive proteins ([3]; pils6-1 roots, 1 hour)",sensitivity of primary root length to exogenous IAA [4]
O=C(O)Cc1c[nH]c2ccccc12 [3H-IAA],significant decrease,hyperaccumulates,hypo-accumulates,,,,
"O=C(O)Cc1c[nH]c2ccccc12 [IAA, indole-3-acetic acid]",,,,178 proteins,11 proteins,9 proteins,less sensitive
